# Measurements reported in US6479435B1, “Diaryl ethers and processes for their preparation and herbicidal and desiccant compositions containing them” (ISK Americas Incorporated, priority 1997, dated 2002).
# How the values were obtained:
# Type in all cases: in vivo
# [1] = test system: soybean (Glycine max L., var. Pella 86, SOY); experiment: Post-emerge greenhouse test, crop damage rating; design: key to crop damage rating SOY: 0-100 scale: 0 = no damage, 100 = complete death of all plants; conditions: 14 days after application; for crop damage rating SOY: scale 0-100
# How it was run: (§1)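 Compounds in acetone with 0.25% v/v non-ionic surfactant were track-sprayed at 187 l/ha over plants at the 2-3 leaf stage, at 63 to 1000 g ai/ha. Pots were bottom-watered. Injury was scored visually 14 days later on a 0-100 scale, where 0 is no damage and 100 is complete plant death.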
# [2] = test system: soybean (Glycine max L., var. Pella 86, SOY); experiment: Pre-emerge greenhouse test, crop damage rating; design: key to SOY crop damage rating: 0 = no damage, 100 = complete death of all plants; conditions: 14 days after application, rating scale 0-100
# How it was run: (§2)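 Seeds sown in sandy loam mix one day before track-sprayer application of compounds in acetone at 125–1000 g ai/ha (187 l/ha), then surface-watered to incorporate and bottom-watered. Visual rating 14 days after application on a 0–100 scale (0 = no damage, 100 = all plants dead).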
# [3] = test system: barnyardgrass (Echinochloa crusgalli, ECHCG); experiment: Post-emerge greenhouse herbicide test, phytotoxicity rating; conditions: 14 days after application; for phytotoxicity rating ECHCG: scale 0-100
# How it was run: as §1
# [4] = test system: redroot pigweed (Amaranthus retroflexus, AMARE); experiment: as above; conditions: 14 days after application; for phytotoxicity rating AMARE: scale 0-100
# How it was run: as §1
# [5] = test system: velvetleaf (Abutilon theophrasti, ABUTH); experiment: as above; conditions: 14 days after application; for phytotoxicity rating ABUTH: scale 0-100
# How it was run: as §1
# [6] = test system: large crabgrass (Digitaria sanguinalis, DIGSA); experiment: as above; conditions: 14 days after application; for phytotoxicity rating DIGSA: scale 0-100
# How it was run: as §1
# [7] = test system: lambsquarters (Chenopodium album, CHEAL); experiment: as above; conditions: 14 days after application; for phytotoxicity rating CHEAL: scale 0-100
# How it was run: as §1
# [8] = test system: Johnsongrass (Sorghum halepense, SORHA); experiment: as above; conditions: 14 days after application; for phytotoxicity rating SORHA: scale 0-100
# How it was run: as §1
# [9] = test system: sicklepod (Cassia obtusifolia, CASOB); experiment: as above; conditions: 14 days after application; for phytotoxicity rating CASOB: scale 0-100
# How it was run: as §1
# [10] = test system: green foxtail (Setaria viridis, SETVI); experiment: as above; conditions: 14 days after application; for phytotoxicity rating SETVI: scale 0-100
# How it was run: as §1
# [11] = test system: ivyleaf morningglory (Ipomoea hederacea, IPOHE); experiment: as above; conditions: 14 days after application; for phytotoxicity rating IPOHE: scale 0-100
# How it was run: as §1
# [12] = test system: common ragweed (Ambrosia artemisiifolia L., AMBEL); experiment: as above; conditions: 14 days after application; for phytotoxicity rating AMBEL: scale 0-100
# How it was run: as §1
# [13] = test system: field corn (Zea mays L., var. Dekalb 535, CORN); experiment: Pre-emerge greenhouse test, crop damage rating; conditions: 14 days after application, rating scale 0-100
# How it was run: as §2
# [14] = test system: upland rice (Oryza sp., var.Tebonnet, RICE); experiment: Pre-emerge greenhouse test, crop damage rating; conditions: 14 days after application, rating scale 0-100
# How it was run: as §2
# [15] = test system: barnyardgrass (Echinochloa crusgalli, ECHCG); experiment: Pre-emerge greenhouse herbicide test, phytotoxicity rating; conditions: 14 days after application, rating scale 0-100
# How it was run: as §2
# [16] = test system: redroot pigweed (Amaranthus retroflexus, AMARE); experiment: as above; conditions: 14 days after application, rating scale 0-100
# How it was run: as §2
# [17] = test system: common ragweed (Ambrosia artemisiifolia L., AMBEL); experiment: as above; conditions: 14 days after application, rating scale 0-100
# How it was run: as §2
# [18] = test system: velvetleaf (Abutilon theophrasti, ABUTH); experiment: as above; conditions: 14 days after application, rating scale 0-100
# How it was run: as §2
# [19] = test system: large crabgrass (Digitaria sanguinalis, DIGSA); experiment: as above; conditions: 14 days after application, rating scale 0-100
# How it was run: as §2
# [20] = test system: lambsquarters (Chenopodium album, CHEAL); experiment: as above; conditions: 14 days after application, rating scale 0-100
# How it was run: as §2
# [21] = test system: Johnsongrass (Sorghum halepense, SORHA); experiment: as above; conditions: 14 days after application, rating scale 0-100
# How it was run: as §2
# [22] = test system: sicklepod (Cassia obtusifolia, CASOB); experiment: as above; conditions: 14 days after application, rating scale 0-100
# How it was run: as §2
# [23] = test system: green foxtail (Setaria viridis, SETVI); experiment: as above; conditions: 14 days after application, rating scale 0-100
# How it was run: as §2
# [24] = test system: ivyleaf morningglory (Ipomoea hederacea, IPOHE); experiment: as above; conditions: 14 days after application, rating scale 0-100
# How it was run: as §2
# [25] = test system: field corn (Zea mays L., var. Dekalb 535, CORN); experiment: Post-emerge greenhouse test, crop damage rating; conditions: 14 days after application; for crop damage rating CORN: scale 0-100
# How it was run: as §1
# [26] = test system: upland rice (Oryza sp., var.Tebonnet, RICE); experiment: Post-emerge greenhouse test, crop damage rating; conditions: 14 days after application; for crop damage rating RICE: scale 0-100
# How it was run: as §1
smiles,measurement,setting,value
Nc1ccc(Oc2cc(-n3c(=O)n4n(c3=S)CCCC4)c(F)cc2Cl)c(C(F)(F)F)c1 [Compound 8-15],SOY crop damage rating (0-100),[1]; 63 g al/ha,20
same,SOY crop damage rating (0-100),[1]; 500 g al/ha,50
same,crop damage rating SOY,[2]; 125 g ai/ha,0
same,crop damage rating SOY,[2]; 500 g ai/ha,0
same,ECHCG phytotoxicity rating (0-100),[3]; 63 g al/ha,0
same,ECHCG phytotoxicity rating (0-100),[3]; 500 g al/ha,0
same,AMARE phytotoxicity rating (0-100),[4]; 63 g al/ha,40
same,AMARE phytotoxicity rating (0-100),[4]; 500 g al/ha,70
same,ABUTH phytotoxicity rating (0-100),[5]; 63 g al/ha,50
same,ABUTH phytotoxicity rating (0-100),[5]; 500 g al/ha,80
same,DIGSA phytotoxicity rating (0-100),[6]; 63 g al/ha,0
same,DIGSA phytotoxicity rating (0-100),[6]; 500 g al/ha,0
same,CHEAL phytotoxicity rating (0-100),[7]; 63 g al/ha,70
same,CHEAL phytotoxicity rating (0-100),[7]; 500 g al/ha,90
same,SORHA phytotoxicity rating (0-100),[8]; 63 g al/ha,0
same,SORHA phytotoxicity rating (0-100),[8]; 500 g al/ha,0
same,CASOB phytotoxicity rating (0-100),[9]; 63 g al/ha,0
same,CASOB phytotoxicity rating (0-100),[9]; 500 g al/ha,50
same,SETVI phytotoxicity rating (0-100),[10]; 63 g al/ha,0
same,SETVI phytotoxicity rating (0-100),[10]; 500 g al/ha,0
same,IPOHE phytotoxicity rating (0-100),[11]; 63 g al/ha,40
same,IPOHE phytotoxicity rating (0-100),[11]; 500 g al/ha,80
same,AMBEL phytotoxicity rating (0-100),[12]; 63 g al/ha,30
same,AMBEL phytotoxicity rating (0-100),[12]; 500 g al/ha,70
same,crop damage rating CORN,[13]; 125 g ai/ha,0
same,crop damage rating CORN,[13]; 500 g ai/ha,0
same,crop damage rating RICE,[14]; 125 g ai/ha,0
same,crop damage rating RICE,[14]; 500 g ai/ha,0
same,phytotoxicity rating ECHCG,[15]; 125 g ai/ha,0
same,phytotoxicity rating ECHCG,[15]; 500 g ai/ha,0
same,phytotoxicity rating AMARE,[16]; 125 g ai/ha,0
same,phytotoxicity rating AMARE,[16]; 500 g ai/ha,40
same,phytotoxicity rating AMBEL,[17]; 125 g ai/ha,0
same,phytotoxicity rating AMBEL,[17]; 500 g ai/ha,0
same,phytotoxicity rating ABUTH,[18]; 125 g ai/ha,0
same,phytotoxicity rating ABUTH,[18]; 500 g ai/ha,50
same,phytotoxicity rating DIGSA,[19]; 125 g ai/ha,0
same,phytotoxicity rating DIGSA,[19]; 500 g ai/ha,0
same,phytotoxicity rating CHEAL,[20]; 125 g ai/ha,0
same,phytotoxicity rating CHEAL,[20]; 500 g ai/ha,100
same,phytotoxicity rating SORHA,[21]; 125 g ai/ha,0
same,phytotoxicity rating SORHA,[21]; 500 g ai/ha,0
same,phytotoxicity rating CASOB,[22]; 125 g ai/ha,0
same,phytotoxicity rating CASOB,[22]; 500 g ai/ha,0
same,phytotoxicity rating SETVI,[23]; 125 g ai/ha,0
same,phytotoxicity rating SETVI,[23]; 500 g ai/ha,0
same,phytotoxicity rating IPOHE,[24]; 125 g ai/ha,0
same,phytotoxicity rating IPOHE,[24]; 500 g ai/ha,0
same,CORN crop damage rating (0-100),[25]; 63 g al/ha,0
same,CORN crop damage rating (0-100),[25]; 500 g al/ha,0
same,RICE crop damage rating (0-100),[26]; 63 g al/ha,0
same,RICE crop damage rating (0-100),[26]; 500 g al/ha,0
CCOC(=O)C(C)Oc1cc([N+](=O)[O-])c(Oc2cc(-n3c(=O)n4n(c3=S)CCCC4)c(F)cc2Cl)cc1Cl (centres unmarked) [Compound 8-38],crop damage rating SOY,[1]; rate 63 g ai/ha,10
same,crop damage rating SOY,[1]; rate 250 g ai/ha,20
same,SOY crop damage rating,[2]; Rate 125 g al/ha,0
same,SOY crop damage rating,[2]; Rate 250 g al/ha,0
same,phytotoxicity rating ECHCG,[3]; rate 63 g ai/ha,0
same,phytotoxicity rating ECHCG,[3]; rate 250 g ai/ha,0
same,phytotoxicity rating AMARE,[4]; rate 63 g ai/ha,60
same,phytotoxicity rating AMARE,[4]; rate 250 g ai/ha,70
same,phytotoxicity rating ABUTH,[5]; rate 63 g ai/ha,100
same,phytotoxicity rating ABUTH,[5]; rate 250 g ai/ha,00
same,phytotoxicity rating DIGSA,[6]; rate 63 g ai/ha,0
same,phytotoxicity rating DIGSA,[6]; rate 250 g ai/ha,0
same,phytotoxicity rating CHEAL,[7]; rate 63 g ai/ha,40
same,phytotoxicity rating CHEAL,[7]; rate 250 g ai/ha,50
same,phytotoxicity rating SORHA,[8]; rate 63 g ai/ha,0
same,phytotoxicity rating SORHA,[8]; rate 250 g ai/ha,0
same,phytotoxicity rating CASOB,[9]; rate 63 g ai/ha,30
same,phytotoxicity rating CASOB,[9]; rate 250 g ai/ha,30
same,phytotoxicity rating SETVI,[10]; rate 63 g ai/ha,0
same,phytotoxicity rating SETVI,[10]; rate 250 g ai/ha,20
same,phytotoxicity rating IPOHE,[11]; rate 63 g ai/ha,40
same,phytotoxicity rating IPOHE,[11]; rate 250 g ai/ha,100
same,phytotoxicity rating AMBEL,[12]; rate 63 g ai/ha,20
same,phytotoxicity rating AMBEL,[12]; rate 250 g ai/ha,50
same,CORN crop damage rating,[13]; Rate 125 g al/ha,0
same,CORN crop damage rating,[13]; Rate 250 g al/ha,0
same,RICE crop damage rating,[14]; Rate 125 g al/ha,0
same,RICE crop damage rating,[14]; Rate 250 g al/ha,0
same,ECHCG phytotoxicity rating,[15]; Rate 125 g al/ha,0
same,ECHCG phytotoxicity rating,[15]; Rate 250 g al/ha,0
same,AMARE phytotoxicity rating,[16]; Rate 125 g al/ha,30
same,AMARE phytotoxicity rating,[16]; Rate 250 g al/ha,80
same,AMBEL phytotoxicity rating,[17]; Rate 125 g al/ha,0
same,AMBEL phytotoxicity rating,[17]; Rate 250 g al/ha,0
same,ABUTH phytotoxicity rating,[18]; Rate 125 g al/ha,100
same,ABUTH phytotoxicity rating,[18]; Rate 250 g al/ha,100
same,DIGSA phytotoxicity rating,[19]; Rate 125 g al/ha,0
same,DIGSA phytotoxicity rating,[19]; Rate 250 g al/ha,0
same,CHEAL phytotoxicity rating,[20]; Rate 125 g al/ha,80
same,CHEAL phytotoxicity rating,[20]; Rate 250 g al/ha,90
same,SORHA phytotoxicity rating,[21]; Rate 125 g al/ha,0
same,SORHA phytotoxicity rating,[21]; Rate 250 g al/ha,0
same,CASOB phytotoxicity rating,[22]; Rate 125 g al/ha,0
same,CASOB phytotoxicity rating,[22]; Rate 250 g al/ha,0
same,SETVI phytotoxicity rating,[23]; Rate 125 g al/ha,0
same,SETVI phytotoxicity rating,[23]; Rate 250 g al/ha,70
same,IPOHE phytotoxicity rating,[24]; Rate 125 g al/ha,0
same,IPOHE phytotoxicity rating,[24]; Rate 250 g al/ha,30
same,crop damage rating CORN,[25]; rate 63 g ai/ha,0
same,crop damage rating CORN,[25]; rate 250 g ai/ha,20
same,crop damage rating RICE,[26]; rate 63 g ai/ha,20
same,crop damage rating RICE,[26]; rate 250 g ai/ha,50
